# According to PMC11503492, “Activity-Based DNA-Encoded Library Screening for Selective Inhibitors of Eukaryotic Translation” (ACS Central Science, 2024):
# Key:
# [1] = test system: PCSK9-FS[1:33]-GFP translation; test: Microfluidic activity-based DEL counter screen in WG IVTT droplets, PCSK9-FS[1:33]-GFP, hit k class by sequencing; assay type: biochemical, wheat germ; conditions: number of times hit structure observed on distinct beads, summed across PCSK9-FS[1:33]-GFP screens; *** p < 0.001, NS not significant
# Protocol: (§1) The validated PF846-inspired library was screened to discover novel translation inhibitors. DEL beads were encapsulated in microfluidic droplets of WG IVTT and irradiated with UV in flow to liberate DEL members into the droplets. The photodosed droplets were incubated and sorted based on fluorescence.[25] PCSK9[1:33]-GFP was chosen as a proof-of-concept target, and PCSK9-FS[1:33]-GFP was used as a counter screen target to identify nonselective compounds. PC-HygB were mixed with DEL beads and screened in the microfluidic device for inhibitors of translation. […] Droplet generation, bead introduction, and library and control bead hit rate were uniform during the screen (Figure 3, bottom).
# (§2) Hit collection DNA tags from the PCSK9[1:33]-GFP and PCSK9-FS[1:33]-GFP screens were sequenced to deduce the structures of molecules that inhibited PCSK9[1:33]- or PCSK9-FS[1:33]-GFP translation. Hit structure k class, the number of times a given hit structure is observed on distinct beads,[31] was summed across screens and visualized as a heat map (Figure 4A). […] The combined hit sets for the two templates contained 121 unique hits with k ≥ 17 across the two screening campaigns. The most frequently observed cycle 1 starter BBs were 1 and 2, which share an 8-methylisoquinoline moiety, but differ in the vector for cycle 2 carboxylic acid connection, and 3, which contains an N-methylazaindole moiety. The most frequently identified cycle 2 tails included carboxylic acids 4–7. […] Substituted pyrazole 6 and pyridyl-benzimidazole 7 also appeared frequently with the aforementioned starters. There were 5 hits that appeared with high k class in both PCSK9[1:33]-GFP and PCSK9[1:33]-FS-GFP screening campaigns.
# (§3) 319 the droplet experiment to homogenize the bead suspension. Syringes were connected to
# (§4) 320 fluidic inputs with microbore Tygon tubing (0.01” x 0.03” IC × OD). Droplet generation oil
# (§5) 321 (OIL1) was 1% picosurf in HFE. Spacing (OIL2) and pinning (OIL3) oils were neat HFE.
# (§6) 322 Assay reagents were driven by displacement syringe pumps (Legato 100, KD Scientific,
# (§7) 323 Holliston, MA) through the circuit. OIL2 and OIL3 were initially flowed (22 µL/min and
# (§8) 324 12 µL/min, respectively) and hit and waste shunt tubing were clamped to backfill the
# (§9) 325 circuit. Once the incubator was filled with oil, the hit and waste tubing were unclamped
# (§10) 326 and back shunts were clamped. AQ1, AQ2, and OIL1 flows were initiated (960 nL/min,
# (§11) 327 640 nL/min, and 1200 nL/min, respectively) and held constant during the screen. Once
# (§12) 328 droplet generation equilibrated (∼10 min), the main shunt was clamped and droplets
# (§13) 329 started to fill the incubator. When droplets filled the incubator and entered the sorting
# (§14) 330 region, data acquisition and screening was initiated.
# (§15) 331 The custom confocal LIF detection setup and LabView code were previously described.S3
# (§16) 332 Briefly, photon counting PMTs (H7828, Hamamatsu, Middlesex, NJ) were used to detect
# (§17) 333 droplet fluorescence emission using a custom two-channel (520 and 570 nm) confocal mi-
# (§18) 334 croscope with laser excitation (488 nm, 20 mW, OBIS-488 20LS, Coherent Inc., Santa Clara,
# (§19) 335 CA). A data acquisition board (DAQ, NI, USB-6341, National Instruments) was used to
# (§20) 336 digitize PMT signal, which was binned into counts, and in-house LabView code was used
# (§21) 337 to control acquisition and execute droplet sorting decisions. Signal was smoothed in real-
# (§22) 338 time using median-filter smoothing (width = 3). Droplets were identified by the 570 nm
# (§23) 339 channel signal and the maximum signal in the 520 nm channel (max = countsn-1 when
# (§24) 340 countsn <countsn-1) was set as the droplet peak value. A roaming sort threshold was
# (§25) 342 the 520 nm channel. The threshold was calculated as µ - 5σ, where µ andσ were the mean
# (§26) 343 and standard deviation of the previous 300 droplets’ fluorescence values, respectively. Hit
# (§27) 344 droplets were not included in the calculation of droplet mean and standard deviation. A […]
# [2] = test system: PCSK9[1:33]-GFP translation; test: Wheat germ lysate (WG) IVTT microplate activity assay, PCSK9[1:33]-GFP template; assay type: biochemical; conditions: WG IVTT; for IC50: PCSK9[1:33]-GFP template, triplicate, ± standard deviation of the mean
# Source text: (§28) A commercially available wheat germ lysate (WG) IVTT system was employed to assay translation inhibition. Translation activity was detected via a GFP reporter, and the assay was miniaturized to picoliter-scale microfluidic droplets (Figure 1A,B). […] PCSK9 and RPL27 were truncated to the first 33 and 32 amino acids, respectively (PCSK9[1:33] and RPL27[1:32]). The sequences contain distinct PF846 stall sites and were both fused to a GFP reporter. The GFP reporter and a frameshift mutant of PCSK9[1:33] (PCSK9-FS[1:33]), which mutates the nascent chain sequence while maintaining a nearly identical mRNA sequence, were included as negative controls.[13] […] Sequence sensitivity was further confirmed by an N-terminal deletion series of PCSK9[1:33]-GFP; deletion of N-terminal residues increasingly ablated PCSK9[1:33]-GFP translation sensitivity to PF846 (Figure 1D). The WG IVTT assay was miniaturized using a previously described microfluidic circuit modified for longer incubation times (Figure S1)[27] using PF846 as a positive control compound, and assay statistical quality was calculated (Z′=0.7) (Figure 1E). To confirm detection of translation inhibition from library beads, hygromycin B, a nonselective aminoglycoside translation inhibitor, was coupled to beads displaying a photocleavable linker (PC-HygB). UV irradiation releases hygromycin from the bead, allowing it to interact with the WG IVTT assay in the droplet. PC-HygB bead photocleavage supernatant inhibited PCSK9[1:33]-GFP translation both in a microplate assay and in microfluidic droplets (Figure 1F,G, S2). Assay statistical quality using PC-HygB positive control beads was similarly calculated (Z′ = 0.75, Figure 1H). […]
# (§29) 436 Microplate IVTT Assays
# (§30) 437 Wheat germ lysate IVTT plate assays were prepared as 5 µL reactions. Wheat germ lysate
# (§31) 438 (3 µL) was added to test compound or vehicle control (1 µL) in a 384-well black microplate
# (§32) 439 and the reaction was incubated (10 min, RT). Template (1 µL) was added and reaction
# (§33) 440 progress was immediately monitored (λex = 480 nm, λem = 530 nm, 27 °C, 2 h). Rela-
# (§34) 441 tive activity was calculated using the slope of fluorescence increase over time (at 15–30
# (§35) 442 min post reaction initiation) for compound samples relative to that of the DMSO vehicle
# 443 control. […]
# [3] = test system: PCSK9[1:33]-GFP translation; test: Microfluidic activity-based DEL screen in WG IVTT droplets, PCSK9[1:33]-GFP, hit k class by sequencing; assay type: biochemical, wheat germ; conditions: number of times hit structure observed on distinct beads, summed across PCSK9[1:33]-GFP screens; *** p < 0.001, NS not significant
# Protocol: as §1, §2, §3, §4, §5, §6, §7, §8, §9, §10, §11, §12, §13, §14, §15, §16, §17, §18, §19, §20, §21, §22, §23, §24, §25, §26, §27
# [4] = test system: PCSK9-FS[1:33]-GFP translation; test: WG IVTT microplate activity assay, PCSK9-FS[1:33]-GFP frameshift counter template; assay type: biochemical, wheat germ; conditions: for IC50: PCSK9-FS[1:33]-GFP template, triplicate, undetectable IC50 marked >300; for activity on PCSK9-FS[1:33]-GFP translation (in words): frameshift control
# Source text: as §28, §29, §30, §31, §32, §33, §34, §35
# 443 control. All microplate experiments contained 25 ng/µL plasmid, except for assays with
# 445 respectively. HeLa lysate IVTT plate assays were prepared as 5.5 µL reactions. […]
IC50 [2] [µM],Structure (SMILES),k class PCSK9-FS [1],inhibition of PCSK9[1:33]-GFP translation (in words) [2],k class PCSK9 [3],IC50 [4] [µM],activity on PCSK9-FS[1:33]-GFP translation (in words) [4]
44 ± 4,Cc1cccc2ccnc(N(C(=O)C3CCN(C(=O)C#CC4(O)CCOCC4)CC3)[C@@H]3CCCNC3)c12 [Compound 12],3,similarly active on both templates,31,27 ± 2,similarly active on both templates
6 ± 0.2,"Cc1cccc2ccnc(N(C(=O)[C@H]3CCCN(C(=O)c4ccc(-c5cnco5)cc4)C3)[C@@H]3CCCNC3)c12 [Compound 10, (S)-N-(8-methylisoquinolin-1-yl)-1-(4-(oxazol-5-yl)benzoyl)-N-((R)-piperidin-3-yl)piperidine-3-carboxamide]",3,modestly inhibited,34,> 300,minimal activity
19.1 ± 0.5,Cc1c(C(=O)N2CCC(C(=O)N(c3nccc4cccc(C)c34)[C@@H]3CCCNC3)CC2)[nH]c2c1C(=O)CCC2 [Compound 11],10,similarly active on both templates,38,31 ± 1,similarly active on both templates
11.2 ± 0.5,Cc1cccc2ccnc(N(C(=O)[C@H]3CCCN(C(=O)c4ccc(N5CCCC5)nc4)C3)[C@@H]3CCCNC3)c12 [Compound 13],4,modestly inhibited,39,> 300,minimal activity
11.4 ± 0.4,Cc1cccc2ccnc(N(C(=O)C3CCN(C(=O)c4ccc5nc(-c6ccncc6)[nH]c5c4)CC3)[C@@H]3CCCNC3)c12 [Compound 14],17,similarly active on both templates,53,7.7 ± 0.1,similarly active on both templates
